Tests used:
Experiment in all cases: radiometric filter-binding kinase assay, Kinase HotSpot
Conditions in all cases: compound 0.5 µM; ATP 10 µM
[1] = molecular target: KIT (human) (UniProt P10721)
[2] = molecular target: FGFR3 (human) (UniProt P22607)
[3] = molecular target: ACVR1 (human) (UniProt Q04771)
[4] = molecular target: MAPKAPK2 (human) (UniProt P49137)
[5] = molecular target: MYO3B (human) (UniProt Q8WXR4)
[6] = molecular target: DDR2 (human) (UniProt Q16832)
[7] = molecular target: NEK4 (human) (UniProt P51957)
[8] = molecular target: CHUK (human) (UniProt O15111)
[9] = molecular target: CSNK1G1 (human) (UniProt Q9HCP0)
[10] = molecular target: ULK3 (human) (UniProt Q6PHR2)
[11] = molecular target: AURKB (human) (UniProt Q96GD4)
[12] = molecular target: PRKACG (human) (UniProt P22612)
[13] = molecular target: EPHA6 (human) (UniProt Q9UF33)
[14] = molecular target: CDK5 CDK5R1 p35 (human) (UniProt Q00535+Q15078)
[15] = molecular target: DAPK1 (human) (UniProt P53355)
[16] = molecular target: GSK3B (human) (UniProt P49841)
[17] = molecular target: PIM1 (human) (UniProt P11309)
[18] = molecular target: PAK6 (human) (UniProt Q9NQU5)
[19] = molecular target: LCK (human) (UniProt P06239)
[20] = molecular target: MAPK14 (human) (UniProt Q16539)
[21] = molecular target: TLK2 (human) (UniProt Q86UE8)
[22] = molecular target: PRKCD (human) (UniProt Q05655)
[23] = molecular target: STK38 (human) (UniProt Q15208)
[24] = molecular target: MERTK (human) (UniProt Q12866)
[25] = molecular target: TEK (human) (UniProt Q02763)
[26] = molecular target: MAP3K5 (human) (UniProt Q99683)
[27] = molecular target: BRAF (human) (UniProt P15056)
[28] = molecular target: CLK2 (human) (UniProt P49760)
[29] = molecular target: ERBB4 (human) (UniProt Q15303)
[30] = molecular target: PASK (human) (UniProt Q96RG2)
[31] = molecular target: RPS6KA2 KD1 KD2 (human) (UniProt Q15349)
[32] = molecular target: CDC42BPB (human) (UniProt Q9Y5S2)
[33] = molecular target: PTK6 (human) (UniProt Q13882)
[34] = molecular target: MAP3K3 (human) (UniProt Q99759)
[35] = molecular target: PRKD3 (human) (UniProt O94806)
[36] = molecular target: RPS6KB2 (human) (UniProt Q9UBS0)
[37] = molecular target: NUAK1 (human) (UniProt O60285)
[38] = molecular target: FER (human) (UniProt P16591)
[39] = molecular target: PRKCB2 (human) (UniProt P05771)
[40] = molecular target: SRPK1 (human) (UniProt Q96SB4)
[41] = molecular target: FGFR2 (human) (UniProt P21802)
[42] = molecular target: EGFR (human) (UniProt P00533)

PRKCD (human), sequence (Q05655 whole entry, looked up): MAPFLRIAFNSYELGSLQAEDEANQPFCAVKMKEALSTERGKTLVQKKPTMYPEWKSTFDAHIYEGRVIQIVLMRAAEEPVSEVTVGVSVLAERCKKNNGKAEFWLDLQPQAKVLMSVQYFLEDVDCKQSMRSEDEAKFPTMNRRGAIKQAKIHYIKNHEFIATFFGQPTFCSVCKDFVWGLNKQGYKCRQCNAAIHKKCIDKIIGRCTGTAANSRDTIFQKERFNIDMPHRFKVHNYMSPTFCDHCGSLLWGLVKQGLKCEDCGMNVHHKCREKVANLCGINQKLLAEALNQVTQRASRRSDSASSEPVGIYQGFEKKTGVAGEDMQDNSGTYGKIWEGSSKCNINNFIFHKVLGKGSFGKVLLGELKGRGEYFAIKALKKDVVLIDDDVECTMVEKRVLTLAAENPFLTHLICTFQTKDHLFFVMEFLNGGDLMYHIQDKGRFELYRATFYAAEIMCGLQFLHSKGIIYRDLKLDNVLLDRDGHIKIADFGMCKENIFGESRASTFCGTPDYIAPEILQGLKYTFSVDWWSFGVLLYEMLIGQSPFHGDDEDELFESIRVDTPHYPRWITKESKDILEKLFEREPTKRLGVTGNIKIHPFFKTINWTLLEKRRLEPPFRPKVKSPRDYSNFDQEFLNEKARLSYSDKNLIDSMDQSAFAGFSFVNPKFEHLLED
MYO3B (human), sequence (Q8WXR4 whole entry, looked up): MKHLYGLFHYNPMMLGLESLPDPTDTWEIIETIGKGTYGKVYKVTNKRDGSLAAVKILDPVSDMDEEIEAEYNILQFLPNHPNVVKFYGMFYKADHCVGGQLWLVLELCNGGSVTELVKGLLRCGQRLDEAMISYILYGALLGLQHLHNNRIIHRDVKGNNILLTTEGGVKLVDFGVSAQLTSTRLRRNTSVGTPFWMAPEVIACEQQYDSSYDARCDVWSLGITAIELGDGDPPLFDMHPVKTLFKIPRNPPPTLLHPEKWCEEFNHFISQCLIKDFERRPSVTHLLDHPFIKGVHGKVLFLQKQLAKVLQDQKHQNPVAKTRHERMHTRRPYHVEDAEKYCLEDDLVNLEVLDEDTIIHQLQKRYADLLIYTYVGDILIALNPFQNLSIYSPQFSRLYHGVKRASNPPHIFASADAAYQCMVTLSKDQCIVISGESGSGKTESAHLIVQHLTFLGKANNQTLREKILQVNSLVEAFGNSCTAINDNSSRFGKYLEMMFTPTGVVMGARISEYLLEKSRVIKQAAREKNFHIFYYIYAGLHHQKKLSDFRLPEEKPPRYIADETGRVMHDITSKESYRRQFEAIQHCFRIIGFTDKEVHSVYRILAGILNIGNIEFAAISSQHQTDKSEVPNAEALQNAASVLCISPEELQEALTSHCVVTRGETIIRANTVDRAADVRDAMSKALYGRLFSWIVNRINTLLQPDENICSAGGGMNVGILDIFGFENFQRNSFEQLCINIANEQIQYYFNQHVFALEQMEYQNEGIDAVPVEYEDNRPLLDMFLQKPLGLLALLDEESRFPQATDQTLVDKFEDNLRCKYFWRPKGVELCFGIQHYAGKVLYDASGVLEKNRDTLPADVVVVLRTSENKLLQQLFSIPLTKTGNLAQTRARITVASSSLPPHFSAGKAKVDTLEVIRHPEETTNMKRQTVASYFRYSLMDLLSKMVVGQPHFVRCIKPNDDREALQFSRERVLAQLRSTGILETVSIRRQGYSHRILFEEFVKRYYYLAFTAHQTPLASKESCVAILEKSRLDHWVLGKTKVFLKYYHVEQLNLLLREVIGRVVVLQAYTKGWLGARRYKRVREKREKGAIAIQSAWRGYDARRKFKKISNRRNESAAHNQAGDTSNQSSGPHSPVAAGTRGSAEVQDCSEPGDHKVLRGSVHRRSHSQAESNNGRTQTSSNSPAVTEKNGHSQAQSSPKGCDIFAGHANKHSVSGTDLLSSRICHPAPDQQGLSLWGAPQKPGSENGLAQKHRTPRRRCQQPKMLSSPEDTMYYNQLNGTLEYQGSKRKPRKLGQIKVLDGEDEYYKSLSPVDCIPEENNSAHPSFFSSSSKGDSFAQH
FGFR3 (human), sequence (P22607 whole entry, looked up): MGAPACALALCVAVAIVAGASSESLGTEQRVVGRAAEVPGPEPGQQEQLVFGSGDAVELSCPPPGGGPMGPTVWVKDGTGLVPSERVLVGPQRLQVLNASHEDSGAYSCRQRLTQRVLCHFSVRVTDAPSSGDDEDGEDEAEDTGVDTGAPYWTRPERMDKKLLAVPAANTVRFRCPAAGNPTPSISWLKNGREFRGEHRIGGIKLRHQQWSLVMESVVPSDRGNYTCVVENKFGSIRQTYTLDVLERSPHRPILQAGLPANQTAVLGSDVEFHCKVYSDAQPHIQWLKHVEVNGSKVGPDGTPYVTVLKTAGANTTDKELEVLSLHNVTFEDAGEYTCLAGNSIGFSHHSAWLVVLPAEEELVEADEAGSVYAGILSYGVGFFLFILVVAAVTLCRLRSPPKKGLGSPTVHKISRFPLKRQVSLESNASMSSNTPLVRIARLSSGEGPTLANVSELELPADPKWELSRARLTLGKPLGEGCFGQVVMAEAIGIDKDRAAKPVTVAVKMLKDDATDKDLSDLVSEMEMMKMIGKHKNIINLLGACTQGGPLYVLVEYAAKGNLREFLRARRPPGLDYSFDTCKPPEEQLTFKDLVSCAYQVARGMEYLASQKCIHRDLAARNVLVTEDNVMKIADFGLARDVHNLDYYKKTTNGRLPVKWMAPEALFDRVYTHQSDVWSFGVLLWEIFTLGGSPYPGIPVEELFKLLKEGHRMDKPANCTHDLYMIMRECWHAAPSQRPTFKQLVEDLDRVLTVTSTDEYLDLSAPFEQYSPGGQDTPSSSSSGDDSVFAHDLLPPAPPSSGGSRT
AURKB (human), sequence (Q96GD4 whole entry, looked up): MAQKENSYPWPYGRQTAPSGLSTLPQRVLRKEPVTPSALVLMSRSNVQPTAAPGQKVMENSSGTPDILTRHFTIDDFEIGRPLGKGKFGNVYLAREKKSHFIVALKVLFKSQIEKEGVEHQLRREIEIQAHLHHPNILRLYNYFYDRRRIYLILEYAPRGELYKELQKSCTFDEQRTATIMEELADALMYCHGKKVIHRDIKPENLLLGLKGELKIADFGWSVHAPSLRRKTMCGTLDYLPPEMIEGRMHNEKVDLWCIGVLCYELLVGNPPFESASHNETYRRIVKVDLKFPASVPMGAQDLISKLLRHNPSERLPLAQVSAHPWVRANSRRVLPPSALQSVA
NUAK1 (human), sequence (O60285 whole entry, looked up): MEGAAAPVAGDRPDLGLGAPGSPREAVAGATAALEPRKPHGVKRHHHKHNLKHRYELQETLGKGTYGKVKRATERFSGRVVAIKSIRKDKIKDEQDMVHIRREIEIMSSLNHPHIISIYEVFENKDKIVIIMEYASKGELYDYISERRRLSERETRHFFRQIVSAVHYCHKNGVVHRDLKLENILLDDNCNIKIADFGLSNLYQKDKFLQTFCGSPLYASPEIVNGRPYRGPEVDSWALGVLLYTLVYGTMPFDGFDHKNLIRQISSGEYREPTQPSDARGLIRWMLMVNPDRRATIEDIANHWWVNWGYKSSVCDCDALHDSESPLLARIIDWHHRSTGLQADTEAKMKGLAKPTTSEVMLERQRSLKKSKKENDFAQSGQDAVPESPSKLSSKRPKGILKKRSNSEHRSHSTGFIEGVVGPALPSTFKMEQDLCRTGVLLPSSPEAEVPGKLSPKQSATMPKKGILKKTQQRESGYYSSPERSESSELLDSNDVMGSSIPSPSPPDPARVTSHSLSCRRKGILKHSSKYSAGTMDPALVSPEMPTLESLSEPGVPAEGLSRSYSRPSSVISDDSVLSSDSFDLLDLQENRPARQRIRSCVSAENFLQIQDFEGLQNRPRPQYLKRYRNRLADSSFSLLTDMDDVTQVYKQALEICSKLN
ULK3 (human), sequence (Q6PHR2 whole entry, looked up): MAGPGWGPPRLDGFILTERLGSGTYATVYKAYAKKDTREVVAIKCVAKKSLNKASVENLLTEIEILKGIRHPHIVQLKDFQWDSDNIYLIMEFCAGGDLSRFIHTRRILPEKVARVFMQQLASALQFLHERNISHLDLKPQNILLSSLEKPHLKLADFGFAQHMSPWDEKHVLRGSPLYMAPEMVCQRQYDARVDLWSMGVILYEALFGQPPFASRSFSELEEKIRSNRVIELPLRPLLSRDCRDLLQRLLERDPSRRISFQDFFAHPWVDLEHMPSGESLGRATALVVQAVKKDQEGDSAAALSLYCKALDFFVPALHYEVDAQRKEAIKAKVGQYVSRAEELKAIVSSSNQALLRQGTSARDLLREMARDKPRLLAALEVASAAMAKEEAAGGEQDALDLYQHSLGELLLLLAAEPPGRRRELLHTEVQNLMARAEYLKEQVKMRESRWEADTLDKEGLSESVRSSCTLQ
RPS6KA2 KD1 KD2 (human), sequence (Q15349 whole entry, looked up): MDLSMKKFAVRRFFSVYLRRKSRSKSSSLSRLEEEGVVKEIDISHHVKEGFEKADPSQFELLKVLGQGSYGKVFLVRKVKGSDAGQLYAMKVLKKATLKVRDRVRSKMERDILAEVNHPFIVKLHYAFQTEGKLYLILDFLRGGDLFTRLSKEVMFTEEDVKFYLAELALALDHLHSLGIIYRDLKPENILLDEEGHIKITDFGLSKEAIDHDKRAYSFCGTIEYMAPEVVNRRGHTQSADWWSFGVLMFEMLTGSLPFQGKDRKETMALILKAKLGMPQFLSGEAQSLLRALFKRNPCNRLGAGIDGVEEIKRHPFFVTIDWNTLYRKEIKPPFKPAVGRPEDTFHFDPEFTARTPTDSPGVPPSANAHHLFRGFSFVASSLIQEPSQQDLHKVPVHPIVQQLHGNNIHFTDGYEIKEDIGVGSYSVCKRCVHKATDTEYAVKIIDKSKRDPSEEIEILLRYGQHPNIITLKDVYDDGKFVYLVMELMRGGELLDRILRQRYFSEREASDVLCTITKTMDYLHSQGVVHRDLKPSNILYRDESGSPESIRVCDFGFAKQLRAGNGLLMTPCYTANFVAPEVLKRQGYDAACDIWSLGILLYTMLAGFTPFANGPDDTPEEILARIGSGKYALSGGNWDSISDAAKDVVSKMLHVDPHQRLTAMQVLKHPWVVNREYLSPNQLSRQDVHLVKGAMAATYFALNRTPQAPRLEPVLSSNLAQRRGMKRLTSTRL

`O=C1NC(=O)c2cc(Nc3ccc(F)cc3)c(Nc3ccc(F)cc3)cc21` was tested, and the residual activity [1] was 97.2%, the residual activity [2] was 99.7% and the residual activity [3] was 92.3%. The residual activity [4] was 95.7%, the residual activity [5] was 98.2% and the residual activity [6] was 99.6%. It also gave a residual activity [7] of 107%, a residual activity [8] of 99.2% and a residual activity [9] of 96.3%. It also gave a residual activity [10] of 96.3%, a residual activity [11] of 99.7% and a residual activity [12] of 101%. For the same molecule, the residual activity [13] was 66.8%, the residual activity [14] was 98.5% and the residual activity [15] was 81.3%. It also gave a residual activity [16] of 89.2%, a residual activity [17] of 81.8% and a residual activity [18] of 106%. For the same molecule, the residual activity [19] was 98.4%, the residual activity [20] was 88.3% and the residual activity [21] was 93.5%. It also gave a residual activity [22] of 98.2%, a residual activity [23] of 85.5% and a residual activity [24] of 97.4%. For the same molecule, the residual activity [25] was 97.6%, the residual activity [26] was 96.6% and the residual activity [27] was 94.2%. The residual activity [28] was 88.1%, the residual activity [29] was 99.4% and the residual activity [30] was 91.3%. The residual activity [31] was 98.7%, the residual activity [32] was 100% and the residual activity [33] was 95.1%. For the same molecule, the residual activity [34] was 102%, the residual activity [35] was 96.7% and the residual activity [36] was 93.9%. The residual activity [37] was 94%, the residual activity [38] was 96.4% and the residual activity [39] was 15.5%. For the same molecule, the residual activity [40] was 102% and the residual activity [41] was 102%.

In the case of `O=c1c(-c2ccc(F)cc2)c(-c2ccncc2)[nH]n1-c1ccc(Cl)cc1`, the residual activity [1] is reported as 94.9%, the residual activity [2] is reported as 88.1% and the residual activity [3] is reported as 91.7%. For the same molecule, the residual activity [4] was 98.5%, the residual activity [5] was 90.7% and the residual activity [6] was 90.6%. It also gave a residual activity [7] of 93.9%, a residual activity [8] of 101% and a residual activity [9] of 83.4%. The residual activity [10] was 94.3%, the residual activity [11] was 95.1% and the residual activity [12] was 91.9%. It also gave a residual activity [13] of 57%, a residual activity [14] of 104% and a residual activity [15] of 84.5%. It also gave a residual activity [16] of 91.6%, a residual activity [17] of 101% and a residual activity [18] of 73.5%. For the same molecule, the residual activity [19] was 101%, the residual activity [20] was 11.2% and the residual activity [21] was 109%. For the same molecule, the residual activity [22] was 92.6%, the residual activity [23] was 93.7% and the residual activity [24] was 82.7%. The residual activity [25] was 94.4%, the residual activity [26] was 115% and the residual activity [28] was 99%. It also gave a residual activity [29] of 73.2%, a residual activity [30] of 93.6% and a residual activity [31] of 91.8%. It also gave a residual activity [32] of 103%, a residual activity [33] of 57.5% and a residual activity [34] of 96.2%. For the same molecule, the residual activity [42] was 57.7%, the residual activity [35] was 74.5% and the residual activity [36] was 95.5%. The residual activity [37] was 89.1%, the residual activity [38] was 94.3% and the residual activity [39] was 92.4%. It also gave a residual activity [40] of 97.9% and a residual activity [41] of 94%.

For `N#C/C(=C1/Nc2ccccc2S1)c1ccnc(NCCc2cccnc2)n1`, the residual activity [1] was 93.6%, the residual activity [2] was 98.2% and the residual activity [3] was 100%. For the same molecule, the residual activity [4] was 97.8%, the residual activity [5] was 96.1% and the residual activity [6] was 94.5%. For the same molecule, the residual activity [7] was 89.1%, the residual activity [8] was 88.6% and the residual activity [9] was 88.8%. It also gave a residual activity [10] of 99.1%, a residual activity [11] of 94% and a residual activity [12] of 101%. For the same molecule, the residual activity [13] was 87.1%, the residual activity [14] was 97.2% and the residual activity [15] was 99.3%. It also gave a residual activity [16] of 6.2%, a residual activity [17] of 11.6% and a residual activity [18] of 97.6%. For the same molecule, the residual activity [19] was 98.3%, the residual activity [20] was 89.1% and the residual activity [21] was 102%. For the same molecule, the residual activity [22] was 92.2%, the residual activity [23] was 100% and the residual activity [24] was 88.9%. It also gave a residual activity [25] of 97.5%, a residual activity [26] of 102% and a residual activity [27] of 96.6%. It also gave a residual activity [28] of 48.5%, a residual activity [29] of 83.1% and a residual activity [30] of 64.1%. It also gave a residual activity [31] of 89.6%, a residual activity [32] of 95.2% and a residual activity [33] of 46.5%. The residual activity [34] was 94.7%, the residual activity [35] was 64.7% and the residual activity [36] was 96.5%. The residual activity [37] was 91.8%, the residual activity [38] was 91% and the residual activity [40] was 97%. For the same molecule, the residual activity [41] was 102%.
